Here are results for three compounds from patent US20110230352A1, “TREATMENT PROCESS FOR A SUPERIOR PLANT IN ORDER TO CONTROL ITS GROWTH AND ARCHITECTURE” (INSTITUT NATIONAL DE LA RECHERCHE AGRONOMIQUE, priority 2008, published 2011).

Test [1] has as its system mutants rms1 (line M3T-884 from wild pea WT Térèse). The experiment in a line: Comparison of GR24, molecule ABC and sorgolactone by local application onto buds at node 4. Type of test: in vivo. The note with it: mutant rms1; 100 nM and 500 nM, 10 μl per bud; nine days after the treatment; FIG. 3. As for the experimental part: A second experiment is carried out on mutants rms1 (line M3T-884 from wild pea WT Térèse) in order to compare on these mutants the effect of synthetic strigolactone GR24, of a synthetic molecule ABC from GR24, without any cycle D characteristic of strigolactone, and Sorgolactone, a natural strigolactone.
The plants used are obtained in the same manner as for the plants used in the first experiment.
The solution containing synthetic strigolactone GR24 at 0 nM, 100 nM and 500 nM (4% PEG 1450, 10% ethanol) is applied with the help of a micropipette onto the buds at the node 4 (N4), at the rate of 10 μl per bud.
(§1) The buds and/or ramifications at the first two plant nodes N1 and N2 are cut at the time of the treatment.
The size of the buds at the upper nodes (node N4) is measured nine days after the treatment. The results of the bud growth are illustrated in the chart in FIG. 3.

For test [2] the test system is unchanged. The experiment in a line: Local application of strigolactone onto axillary buds at node 4, bud growth. Type of test: in vivo. As to conditions: mutant rms1; 100 nM, 10 μl per bud; eight days after the treatment; FIG. 2. As for the experimental part: (§2) A first experiment is carried out simultaneously on mutants rms1 (line M3T-884 from wild pea WT Térèse) and rms4 (line M3T-946 from wild pea WT Térèse).
(§3) 9 seeds are used for each treatment; they are sowed in pots (3 plants per pot) in soil mixed to clay balls. The seedling is carried out under glass with a light period of 16 h light/8 h night.
(§4) The treatment is carried out 10 days after the seedling (Stage with 4 leaves).
(§5) A solution containing synthetic strigolactone GR24 dissolved in acetone at 0 nM and 100 nM (4% PEG 1450, 25% ethanol, 5^0/00 acetone) is applied with the help of a micropipette onto the buds at the node 4 (N4), at the rate of 10 μl per bud.
(§6) The buds and/or ramifications at the first two plant nodes N1 and N2 are cut for favoring the start of the buds at upper nodes.
(§7) The untreated plants correspond to the plants the buds and/or ramifications of which at nodes 1 and 2 have been cut but which have not received any treatment. The control “0 nM” corresponds to the plants treated with the same solution as for the treatment “500 nM” but without any strigolactones.

The test system of test [3] is mutants rms4 (line M3T-946 from wild pea WT Térèse). The test is described as above. Type of test: in vivo. As to conditions: mutant rms4; 100 nM, 10 μl per bud; eight days after the treatment; FIG. 2. As for the experimental part: as §2, §3, §4, §5, §6, §7
The next test relates to wild peas WT Térèse. The experiment in a line: Local application onto buds at node 2 of wild pea. The note with it: 500 nM, 10 μl per bud, eight days after the treatment, FIG. 4. Type of test: in vivo. As for the experimental part: To this end, a third experiment is carried out on wild peas WT Térèse. The plants used are obtained in a identical manner as for the plants used in the first experiment.
The treatment is carried out 10 days after the seedling (stage with 4 to 5 leaves).
A solution containing synthetic strigolactone GR24 at 0 nM and 500 nM (4% PEG, 10% ethanol) is applied with the help of a micropipette onto the buds at the node 2 (N2), at the rate of 10 μl per bud.
The buds and/or ramifications at the first plant node N1 are cut at the time of the treatment.
The bud size at the node N2 is measured eight days after the treatment, the results being plotted in the chart in FIG. 4.

Test [4] relates to mutants rms1 (line WL5237 from wild pea WT Parvus). The experiment in a line: Local application onto buds at node 3 of plants of different ages. Type of test: in vivo. The note with it: 1000 nM applied on two days, 9 to 13 day-old plants, buds 0.2 to 1 mm at first treatment, three and seven days after, FIG. 5A. As for the experimental part: A first experiment is carried out on mutants rms1 (line WL5237 from wild pea WT Parvus) in order to compare the effect of synthetic strigolactones GR24 on the size of the treated buds at the time of the treatment.
In this experiment, 20 seeds are used for each treatment, which are sowed in pots (2 plants per pot with a diameter of 15 cm) in a soil mixed to clay balls. The seedling is carried out under glass with a natural light and with an extension of the light period of 18 h light/6 h night by means of incandescent bulbs (60 W).
On the first day of treatment, a solution containing synthetic strigolactone GR24 at 0 nM and 1000 nM (4% PEG 1450, 10% ethanol) is applied with the help of a micropipette onto the buds at the node 3 (N3), at the rate of 10 μl per bud.
On the second day of treatment, a solution containing synthetic strigolactone GR24 at 0 nM and 1000 nM (4% PEG 1450, 10% ethanol) is applied with the help of a micropipette onto the same buds, at the rate of 10 μl per bud.
as §1
The first treatment is carried out on 9, 10, 11, 12 and 13 day-old plants (the seedling were spread out over five days).
The bud size at the node N3 is measured the day of the first treatment (J0) and three and seven days afterwards. The obtained results are illustrated in the charts in FIG. 5A.

The subject of test [5] is mutants rms1 (line M3T-988 from WT Térèse). Put plainly: Injection into the stem above node N3, size of bud at N5 (long-distance, dose-response). Type of test: in vivo, pea. As to conditions: rms1 M3T-988; injected 1, 10, 100, 500 nM; eight days after the treatment; FIG. 6. As for the experimental part: To this end, an experiment is carried out on mutants rms1 (line M3T-988 from WT Térèse) obtained in the same manner as for the mutants used in the preceding experiments.
The plants are treated by injecting the solution into the stem above the node N3. More precisely, a cotton thread is introduced into the plant stem with the help of needle and is dipped into the solution to be tested. The GR24 solution used (0 nM, 1 nM, 10 nM, 100 nM and 500 nM) were prepared by diluting in water GR24 solutions kept in acetone at different concentrations so that they have the same volume of acetone (10 μl of acetone in 20 ml of water).
as §1
The “untreated” plants correspond to control plants the ramifications N1 and N2 of which have been cut, but which have not received any injection.
The size of the buds at the node situated a distance above the injection zone (N5) is measured eight days after the treatment.

The subject of test [6] is mutants rms1 (line WL5237 from WT Térèse). The experiment in a line: Decapitation after treatment of buds at node 3. Type of test: in vivo, pea. The note with it: 1000 nM, two applications, decapitated nine days after the treatment, measured seven days after decapitation, FIG. 7B. As for the experimental part: A first experiment is carried out simultaneously on wild peas (line WT Parvus) and mutants rms1 (line WL5237 from […]). In this experiment, 18 seeds are used for each treatment, which are sowed in pots (2 plants per pot with a diameter of 15 cm) in a soil mixed with sand. The seedling is carried out under glass with natural light and with an extension of the light period of 18 h light/6 h night be means of incandescent bulbs (60 W).
In a first stage, the plants are treated by two successive applications, separated by a 24 hour interval, of a solution (2% PEG 3550, 50% ethanol) containing synthetic strigolactone GR24 at 0 nM or 1000 nM. The solution is applied with the help of a micropipette onto the buds at the node 3 (N3), at the rate of 10 μl per bud.
as §1
The size of the treated buds is measured seven days after the treatment. The chart in FIG. 7A illustrates the results obtained with the buds at the N3.
In a second stage, a first half of the treated mutant plants rms1 are decapitated just above the node 3, nine days after the treatment, the second half is left intact. The buds and/or ramifications at node 3 of the treated plants at 0 nM (which have not been repressed) are cut.
The bud size is measured seven days after the decapitation. […]

Test [7] deals with wild pea (line WT Térèse) and mutant pea (line M3T-988 ccd8/rms1 from WT Térèse). Put plainly: Application through the roots in hydroponic solution, internodal length and ramification length. Type of test: in vivo. As for the experimental part:
To this end, an experiment is carried out in a hydroponic solution in order to bring GR24 into the hydroponic solution through the roots.
In this experiment, wild pea seeds (line WT Térèse) and mutant pea seeds (line M3T-988 ccd8/rms1 from WT Térèse) are first sowed in sand. Eight days later, the resulting plants are brought into the hydroponic system in which the roots are dipped in the nutritive solution. Four days later, a GR24 solution (diastereo isomer no 1) is added to 1 μM in the 47 liters of nutritive solution (4.7 ml GR24 at 10 mM). In this experiment, the plants reach the stage with 3-4 nodes.
Then, the cotyledonal ramifications are removed. The ramifications at the nodes N1 and N2 are kept.
The observation is carried out seven days later after addition of GR24 in the solution.
FIG. 10 represents the internodal length measured 19 days later after the germination on treated and untreated wild plants on one hand and treated and untreated mutant plants on the other hand.
FIG. 11 represents the ramification length (ramifications 3 at node N4) measured 19 days later on treated and untreated wild plants on one hand and treated and untreated mutant plants on the other hand. The ramifications at nodes N1 and N2 have already started at the time of the addition of GR24.

Entries after “also recorded” stand apart in the source; their conditions may differ.

For `O=C1OC2c3ccccc3CC2/C1=C\O` (stereo not drawn) [ABC], in test [1], the “bud growth at node N4, comparison of effects” value (“bud growth at node N4” below) is “less efficient than GR24 and sorgolactone”.

As for `CC1=CC(O/C=C2/C(=O)OC3c4ccccc4CC23)OC1=O` (stereo not drawn) [GR24], the “bud growth at N4” value in test [2] is recorded as “strongly repressed; also recorded: inhibit the growth of said treated buds”; in test [3] it was “not repressed in a significant manner”. Further, the “bud growth at node N4” value in test [1] was “comparable effects”. Besides, the “bud size at the node N2” value in the test with wild peas WT Térèse is given as “has also an action on the growth of the buds”. Further, the “bud size at the node N3, sensitivity of buds of different ages” value in test [4] was “all sensitive to the treatment”. Moreover, in test [5], the “concentration from which injection above N3 represses the growth of the bud at N5” value is listed as at least 10 nM. Besides, in test [6], the “bud size at N3 after decapitation of plants with buds first inhibited” value is reported as “able to start again when the plant is decapitated”. For the same compound, in test [7] (1 μM in hydroponic solution through the roots, wild and rms1 mutant, 19 days after germination, FIG. 10), the “internodal length, from internode N4-N5” value is “has an effect only from the internode N4-N5”. In addition, the “ramification length / bud start” value in test [7] (1 μM in hydroponic solution through the roots, wild and rms1 mutant, measured 19 days later, FIG. 11) is recorded as “induces a reduction of the ramification length”. Moreover, in test [7] (1 μM in hydroponic solution, internodes already developed before addition, FIG. 10), the “internodal length, internodes N1-N2, N2-N3 and N3-N4” value is reported as “has no action”.

For `CC1=C[C@H](O/C=C2/C(=O)O[C@@H]3C4=C(CCC[C@@H]4C)C[C@H]23)OC1=O` [sorgolactone, Sorgolactone], in test [1], the “bud growth at node N4” value is listed as “comparable effects”.
